# Measured values: patent US12084472B2 (Ardelyx, Inc., priority 2015, dated 2024)
# Biological target: T1, human TGR5 (Homo sapiens, UniProt Q8TDU6)
# T1 construct: expressed in transfected cells; host or cells: HEK293
# T1 sequence (Q8TDU6 1-330): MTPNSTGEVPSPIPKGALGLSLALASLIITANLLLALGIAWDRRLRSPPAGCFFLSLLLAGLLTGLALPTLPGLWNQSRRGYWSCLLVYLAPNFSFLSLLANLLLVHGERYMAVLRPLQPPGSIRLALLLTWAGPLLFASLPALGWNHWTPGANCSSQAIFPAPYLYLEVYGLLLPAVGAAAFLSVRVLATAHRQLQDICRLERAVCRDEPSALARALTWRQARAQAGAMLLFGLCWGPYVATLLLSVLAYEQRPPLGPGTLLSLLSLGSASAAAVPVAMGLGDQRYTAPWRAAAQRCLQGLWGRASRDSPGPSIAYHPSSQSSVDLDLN
# Assay: Cell-based TGR5 assay (cAMP generation, HTRF)
# Conditions: HEK293 cells stably transfected with human TGR5; cAMP by HTRF; 30 minutes at 37° C.; read-out: pEC50 Human TGR5 (converted)
# Outline: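 First, compounds in 3-fold serial dilution were placed in HBSS with 10 mM HEPES pH 7.4 and 0.5 mM IBMX. Next, human TGR5-expressing HEK293 cells were added and incubated 30 min at 37° C. Finally, cAMP was detected by HTRF and pEC50 derived by logistic fitting.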
row,SMILES,EC50 [µM]
1,"Cc1ccc(C(C)CCCC(=O)O)cc1CNC1(c2cnccc2-c2ccccc2OC2CC2)CC1 (single isomer, unassigned) [Compound I-253]",< 0.1
2,"Cc1cc(COC2(c3cnccc3-c3ccccc3OC3CC3)CC2)c(Cl)cc1CCCCNC(=O)N[C@@H](CO)[C@@H](O)[C@H](O)[C@H](O)CO [Compound I-95, 1-(4-(5-chloro-4-((1-(4-(2-cyclopropoxyphenyl)pyridin-3-yl)cyclopropoxy)methyl)-2-methylphenyl)butyl)-3-((2S,3R,4S,5R)-1,3,4,5,6-pentahydroxyhexan-2-yl)urea]",< 0.1
3,"CC(CCCc1cc(Cl)c(COC2(c3cnccc3-c3ccccc3OC3CC3)CC2)cc1Cl)C(=O)NC[C@H](O)[C@@H](O)[C@H](O)[C@H](O)CO (stereo partly drawn) [Compound I-139, 5-[2,5-dichloro-4-({1-[4-(2-cyclopropoxyphenyl)pyridin-3-yl]cyclopropoxy}methyl)phenyl]-2-methyl-N-[(2S,3R,4R,5R)-2,3,4,5,6-pentahydroxyhexyl]pentanamide]",< 0.1
4,"CN(C)C(=O)c1ccc(Cl)c(COC2(c3cnccc3-c3ccccc3OC3CC3)CC2)c1 [Compound I-725, 4-Chloro-3-((1-(4-(2-cyclopropoxyphenyl)pyridin-3-yl)cyclopropoxy)methyl)-N,N-dimethylbenzamide]",0.126 to 1
5,"O=C(CCN(CCC(=O)NC[C@H](O)[C@@H](O)[C@H](O)[C@H](O)CO)C(=O)CCCCc1cc(Cl)c(COC2(c3cnccc3-c3ccccc3OC3CC3)CC2)cc1Cl)NC[C@H](O)[C@@H](O)[C@H](O)[C@H](O)CO (stereo in doubt) [Compound I-168, 5-[2,5-dichloro-4-({1-[4-(2-cyclopropoxyphenyl)pyridin-3-yl]cyclopropoxy}methyl)phenyl]-N,N-bis(2-{[(2S,3R,4R,5R)-2,3,4,5,6-pentahydroxyhexyl]carbamoyl}ethyl)pentanamide]",< 0.1
6,"CS(=O)(=O)CCN(CCCCNS(=O)(=O)c1ccc(Cl)c(COC2(c3cnccc3-c3ccccc3OC3CC3)CC2)c1)C(=O)[C@@H](O)[C@@H](O)[C@H](O)[C@@H](O)CO [Compound I-457, (2S,3S,4R,5S)-N-{4-[4-chloro-3-({1-[4-(2-cyclopropoxyphenyl)pyridin-3-yl]cyclopropoxy}methyl)benzenesulfonamido]butyl}-2,3,4,5,6-pentahydroxy-N-(2-methanesulfonylethyl) hexanamide]",< 0.1
7,"O=C(O)[C@@H](O)[C@@H](O)[C@H](O)[C@@H](O)CNC1CCN(C(=O)CCCCc2cc(Cl)c(COC3(c4cnccc4-c4ccccc4OC4CC4)CC3)cc2Cl)CC1 (stereo in doubt) [Compound I-173, (2S,3S,4R,5S)-6-[(1-{5-[2,5-dichloro-4-({1-[4-(2-cyclopropoxyphenyl)pyridin-3-yl]cyclopropoxy}methyl)phenyl]pentanoyl}piperidin-4-yl)amino]-2,3,4,5-tetrahydroxyhexanoic acid]",< 0.1
8,"C[C@@H](CCCCNC(=O)NC[C@H](O)[C@@H](O)[C@H](O)[C@H](O)CO)c1ccc(Cl)c(COC2(c3cnccc3-c3ccccc3OC3CC3)CC2)c1 (single isomer, unassigned) [Compound I-274]",< 0.1
9,"CC(=O)NCCN(CCCCSc1ccc(Cl)c(COC2(c3cnccc3-c3ccccc3OC3CC3)CC2)c1)C(=O)[C@@H](O)[C@@H](O)[C@H](O)[C@@H](O)CO [Compound I-564, (2S,3S,4R,5S)-N-(4-{[4-chloro-3-({1-[4-(2-cyclopropoxyphenyl)pyridin-3-yl]cyclopropoxy}methyl)phenyl]sulfanyl}butyl)-N-(2-acetamidoethyl)-2,3,4,5,6-pentahydroxyhexanamide]",< 0.1
10,"O=C(CCCCc1cc(Cl)c(COC2(c3cnccc3-c3ccccc3OC3CC3)CC2)cc1Cl)N(CCCO)C[C@H](O)[C@@H](O)[C@H](O)[C@H](O)CO [Compound I-218, 5-[2,5-dichloro-4-({1-[4-(2-cyclopropoxyphenyl)pyridin-3-yl]cyclopropoxy}methyl)phenyl]-N-(3-hydroxypropyl)-N-[(2S,3R,4R,5R)-2,3,4,5,6-pentahydroxyhexyl]pentanamide]",< 0.1
11,"CN(C)S(=O)(=O)CCN(C[C@H](O)[C@@H](O)[C@H](O)[C@H](O)CO)C(=O)CCCSc1ccc(Cl)c(COC2(c3cnccc3-c3ccccc3OC3CC3)CC2)c1 [Compound I-693, 4-{[4-chloro-3-({1-[4-(2-cyclopropoxyphenyl)pyridin-3-yl]cyclopropoxy}methyl)phenyl]sulfanyl}-N-[2-(dimethylsulfamoyl)ethyl]-N-[(2S,3R,4R,5R)-2,3,4,5,6-pentahydroxyhexyl]butanamide]",0.126 to 1
12,"O=C1CCO[C@H]([C@@H](O)[C@H](O)[C@H](O)CO)CN1CCCCc1cc(Cl)c(COC2(c3cnccc3-c3ccccc3OC3CC3)CC2)cc1Cl [Compound I-78, (S)-4-(4-(2,5-dichloro-4-((1-(4-(2-cyclopropoxyphenyl)pyridin-3-yl)cyclopropoxy)methyl)phenyl)butyl)-2-((1S,2R,3R)-1,2,3,4-tetrahydroxybutyl)-1,4-oxazepan-5-one]",< 0.1
13,"Fc1ccccc1-c1ccncc1C1(NCc2cc(Cl)ccc2Cl)CC1 [Compound I-17, N-[(2,5-dichlorophenyl)methyl]-1-[4-(2-fluorophenyl)pyridin-3-yl]cyclopropan-1-amine]",1.26 to 10
14,"COCCN(CCCCNC(=O)N[C@@H](CO)[C@@H](O)[C@H](O)[C@H](O)CO)S(=O)(=O)c1ccc(Cl)c(COC2(c3cnccc3-c3ccccc3OC3CC3)CC2)c1 [Compound I-416, 1-{4-[N-(2-methoxyethyl)4-chloro-3-({1-[4-(2-cyclopropoxyphenyl)pyridin-3-yl]cyclopropoxy}methyl)benzenesulfonamido]butyl}-3-[(2S,3R,4S,5R)-1,3,4,5,6-pentahydroxyhexan-2-yl]urea]",< 0.1
15,"O=C(/C=C/C1CCN(S(=O)(=O)c2ccc(Cl)c(COC3(c4cnccc4-c4ccccc4OC4CC4)CC3)c2)C1)NC[C@H](O)[C@@H](O)[C@H](O)[C@H](O)CO (stereo partly drawn) [Compound I-450, (2E)-3-{1-[4-chloro-3-({1-[4-(2-cyclopropoxyphenyl)pyridin-3-yl]cyclopropoxy}methyl)benzenesulfonyl]pyrrolidin-3-yl}-N-[(2S,3R,4R,5R)-2,3,4,5,6-pentahydroxyhexyl]prop-2-enamide]",< 0.1
16,"Cc1ccc(SCCCN(CCCCO)C(=O)[C@@H](O)[C@@H](O)[C@H](O)[C@@H](O)CO)cc1COC1(c2cnccc2-c2ccccc2OC2CC2)CC1 [Compound I-539, (2S,3S,4R,5S)-N-(3-{[3-({1-[4-(2-cyclopropoxyphenyl)pyridin-3-yl]cyclopropoxy}methyl)-4-methylphenyl]sulfanyl}propyl)-2,3,4,5,6-pentahydroxy-N-(4-hydroxybutyl)hexanamide]",0.126 to 1

# Now from value to compound:
row,EC50 [µM],SMILES
1,< 0.1,"Cc1ccc(C(C)CCCN(C(=O)[C@@H](O)[C@@H](O)[C@H](O)[C@@H](O)CO)C2CCOCC2)cc1CNC1(c2cnccc2-c2ccccc2OC2CC2)CC1 (stereo partly drawn) [Compound I-304, (2S,3S,4R,5S)-N-(4-{3-[({1-[4-(2-cyclopropoxyphenyl)pyridin-3-yl]cyclopropyl}amino)methyl]-4-methylphenyl}pentyl)-2,3,4,5,6-pentahydroxy-N-(oxan-4-yl)hexanamide]"
2,< 0.1,"CC(C)CN(CCCCNC(=O)NC[C@H](O)[C@@H](O)[C@H](O)[C@H](O)CO)S(=O)(=O)c1ccc(Cl)c(COC2(c3cnccc3-c3ccccc3OC3CC3)CC2)c1 [Compound I-762, 4-chloro-3-((1-(4-(2-cyclopropoxyphenyl)pyridin-3-yl)cyclopropoxy)methyl)-N-isobutyl-N-(4-(3-((2S,3R,4R,5R)-2,3,4,5,6-pentahydroxyhexyl)ureido)butyl)benzenesulfonamide]"
3,0.126 to 1,"C[C@@H](CCCCN)c1ccc(Cl)c(CNC2(c3cnccc3-c3ccccc3OC3CC3)CC2)c1 (single isomer, unassigned) [Compound I-243]"
4,< 0.1,"Cc1ccc(C(C)CCCC(=O)N(CCS(C)(=O)=O)C[C@H](O)[C@@H](O)[C@H](O)[C@H](O)CO)cc1CNC1(c2cnccc2-c2ccccc2OC2CC2)CC1 (stereo partly drawn) [Compound I-369, 5-{3-[({1-[4-(2-cyclopropoxyphenyl)pyridin-3-yl]cyclopropyl}amino)methyl]-4-methylphenyl}-N-(2-methanesulfonylethyl)-N-[(2S,3R,4R,5R)-2,3,4,5,6-pentahydroxyhexyl]hexanamide]"
5,< 0.1,"CC(CCCCC(=O)O)c1ccc(Cl)c(CNC2(c3cnccc3-c3ccccc3OC3CC3)CC2)c1 (centres unmarked) [Compound I-249, 6-{4-chloro-3-[({1-[4-(2-cyclopropoxyphenyl)pyridin-3-yl]cyclopropyl}amino)methyl]phenyl}heptanoic acid]"
6,< 0.1,"CN(C[C@H](O)[C@@H](O)[C@H](O)[C@H](O)CO)C(=O)CCCSc1ccc(Cl)c(COC2(c3cnccc3-c3ccccc3OC3CC3)CC2)c1 [Compound I-648, 4-{[4-chloro-3-({1-[4-(2-cyclopropoxyphenyl)pyridin-3-yl]cyclopropoxy}methyl)phenyl]sulfanyl}-N-methyl-N-[(2S,3R,4R,5R)-2,3,4,5,6-pentahydroxyhexyl]butanamide]"
7,< 0.1,"CC(C)(NCc1cc(Cl)ccc1Cl)c1cnccc1-c1ccccc1OC1CC1 [Compound I-723, 2-(4-(2-Cyclopropoxyphenyl)pyridin-3-yl)-N-(2,5-dichlorobenzyl)propan-2-amine]"
